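Briefly, cells in 96-well plates were exposed to five compound concentrations for 48 h, and endpoints were estimated by linear interpolation. Here, GI50 denotes the concentration required for 50% inhibition of growth.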 Active and inactive are the calls of the source. Rule as the data show it: active = GI50 up to about 1.1 µM and inactive = higher.
Tests used:
Assay in all cases: NCI-60 cell line screen, 48 h
SK-MEL-28 = test system: SK-MEL-28
COLO 205 = test system: COLO 205
OVCAR-3 = test system: OVCAR-3
A549 = test system: A549
CCRF-CEM = test system: CCRF-CEM
U-251 = test system: U-251
DU-145 = test system: DU-145
OVCAR-5 = test system: OVCAR-5
MOLT-4 = test system: MOLT-4
Hs-578T = test system: Hs-578T
NCI-H226 = test system: NCI-H226
A498 = test system: A498
HCT-116 = test system: HCT-116
MCF7 = test system: MCF7
OVCAR-8 = test system: OVCAR-8
SF-539 = test system: SF-539
HT-29 = test system: HT-29
HCT-15 = test system: HCT-15
SN12C = test system: SN12C
PC-3 = test system: PC-3
SF-268 = test system: SF-268
UO-31 = test system: UO-31
SNB-19 = test system: SNB-19
NCI-H460 = test system: NCI-H460
TK-10 = test system: TK-10
SNB-75 = test system: SNB-75
SW-620 = test system: SW-620
BT-549 = test system: BT-549
SK-MEL-5 = test system: SK-MEL-5
CAKI-1 = test system: CAKI-1
HOP-62 = test system: HOP-62
K562 = test system: K562
SK-OV-3 = test system: SK-OV-3
MDA-N = test system: MDA-N
HOP-92 = test system: HOP-92
T47D = test system: T47D
HL-60 = test system: HL-60
HCC 2998 = test system: HCC 2998
SK-MEL-2 = test system: SK-MEL-2
786-0 = test system: 786-0
OVCAR-4 = test system: OVCAR-4
ACHN = test system: ACHN
SF-295 = test system: SF-295
M14 = test system: M14
LOX IMVI = test system: LOX IMVI
MDA-MB-435 = test system: MDA-MB-435
SR = test system: SR
NCI-H522 = test system: NCI-H522
RPMI-8226 = test system: RPMI-8226
RXF 393 = test system: RXF 393
NCI-H23 = test system: NCI-H23
EKVX = test system: EKVX
MDA-MB-231 = test system: MDA-MB-231
IGROV-1 = test system: IGROV-1
KM12 = test system: KM12
Malme-3M = test system: Malme-3M
NCI/ADR-RES = test system: NCI/ADR-RES
UACC-62 = test system: UACC-62
UACC-257 = test system: UACC-257

## NC(=O)NN=C1Cc2ccccc2C1
SK-MEL-28
  GI50: > 100 µM (inactive)
COLO 205
  GI50: > 100 µM (inactive)
OVCAR-3
  GI50: > 100 µM (inactive)
A549
  GI50: > 100 µM (inactive)
CCRF-CEM
  GI50: > 100 µM (inactive)
U-251
  GI50: > 100 µM (inactive)
DU-145
  GI50: > 100 µM (inactive)
OVCAR-5
  GI50: > 100 µM (inactive)
MOLT-4
  GI50: > 100 µM (inactive)
Hs-578T
  GI50: > 100 µM (inactive)
NCI-H226
  GI50: > 100 µM (inactive)
A498
  GI50: > 100 µM (inactive)
HCT-116
  GI50: > 100 µM (inactive)
MCF7
  GI50: > 100 µM (inactive)
OVCAR-8
  GI50: > 100 µM (inactive)
SF-539
  GI50: > 100 µM (inactive)
HT-29
  GI50: > 100 µM (inactive)
HCT-15
  GI50: > 100 µM
SN12C
  GI50: > 100 µM (inactive)
PC-3
  GI50: > 100 µM (inactive)
SF-268
  GI50: > 100 µM (inactive)
UO-31
  GI50: > 100 µM (inactive)
SNB-19
  GI50: > 100 µM (inactive)
NCI-H460
  GI50: > 100 µM (inactive)
TK-10
  GI50: > 100 µM (inactive)
SNB-75
  GI50: > 100 µM (inactive)
SW-620
  GI50: > 100 µM (inactive)
BT-549
  GI50: > 100 µM (inactive)
SK-MEL-5
  GI50: > 100 µM (inactive)
CAKI-1
  GI50: > 100 µM (inactive)
HOP-62
  GI50: > 100 µM (inactive)
K562
  GI50: > 100 µM (inactive)
SK-OV-3
  GI50: > 100 µM (inactive)
MDA-N
  GI50: > 100 µM (inactive)
HOP-92
  GI50: > 100 µM (inactive)
T47D
  GI50: > 100 µM (inactive)
HL-60
  GI50: > 100 µM (inactive)
HCC 2998
  GI50: > 100 µM (inactive)
SK-MEL-2
  GI50: > 100 µM (inactive)
786-0
  GI50: > 100 µM (inactive)
OVCAR-4
  GI50: > 100 µM (inactive)
ACHN
  GI50: > 100 µM (inactive)
SF-295
  GI50: > 100 µM (inactive)
M14
  GI50: > 100 µM (inactive)
LOX IMVI
  GI50: > 100 µM (inactive)
MDA-MB-435
  GI50: > 100 µM (inactive)
SR
  GI50: > 100 µM (inactive)
NCI-H522
  GI50: > 100 µM (inactive)
RPMI-8226
  GI50: > 100 µM (inactive)
RXF 393
  GI50: > 100 µM (inactive)
NCI-H23
  GI50: > 100 µM (inactive)
EKVX
  GI50: > 100 µM (inactive)
MDA-MB-231
  GI50: > 100 µM (inactive)
IGROV-1
  GI50: > 100 µM (inactive)
KM12
  GI50: > 100 µM (inactive)
Malme-3M
  GI50: > 100 µM (inactive)
NCI/ADR-RES
  GI50: > 100 µM (inactive)
UACC-62
  GI50: > 100 µM (inactive)
UACC-257
  GI50: > 100 µM (inactive)

## COC(=O)c1ccc(CCC2=CC(=O)C(Br)=CC2=O)cc1
SK-MEL-28
  GI50: 16.7 µM (inactive)
COLO 205
  GI50: 6.78 µM (inactive)
OVCAR-3
  GI50: 15.3 µM (inactive)
A549
  GI50: 19.4 µM (inactive)
CCRF-CEM
  GI50: 0.615 µM (active)
U-251
  GI50: 16.7 µM (inactive)
DU-145
  GI50: 18.1 µM (inactive)
OVCAR-5
  GI50: 18.8 µM (inactive)
MOLT-4
  GI50: 2.47 µM (inactive)
Hs-578T
  GI50: 20.4 µM (inactive)
NCI-H226
  GI50: 14.7 µM (inactive)
A498
  GI50: 20.2 µM (inactive)
HCT-116
  GI50: 16 µM (inactive)
MCF7
  GI50: 16.5 µM (inactive)
OVCAR-8
  GI50: 16.3 µM (inactive)
SF-539
  GI50: 17.8 µM (inactive)
HT-29
  GI50: 16.7 µM (inactive)
HCT-15
  GI50: 14.5 µM
SN12C
  GI50: 17.5 µM (inactive)
PC-3
  GI50: 16.9 µM (inactive)
SF-268
  GI50: 19.8 µM (inactive)
UO-31
  GI50: 15.8 µM (inactive)
SNB-19
  GI50: 15.6 µM (inactive)
NCI-H460
  GI50: 18.2 µM (inactive)
TK-10
  GI50: 17.3 µM (inactive)
SNB-75
  GI50: 14 µM (inactive)
SW-620
  GI50: 13.6 µM (inactive)
BT-549
  GI50: 11.6 µM (inactive)
SK-MEL-5
  GI50: 12.1 µM (inactive)
CAKI-1
  GI50: 13.6 µM (inactive)
HOP-62
  GI50: 17.8 µM (inactive)
K562
  GI50: 2.21 µM (inactive)
SK-OV-3
  GI50: 17.8 µM (inactive)
MDA-N
  GI50: 16 µM (inactive)
HOP-92
  GI50: 5.14 µM (inactive)
T47D
  GI50: 21.5 µM (inactive)
HL-60
  GI50: 2 µM (inactive)
HCC 2998
  GI50: 15.7 µM (inactive)
SK-MEL-2
  GI50: 17.1 µM (inactive)
786-0
  GI50: 19.8 µM (inactive)
OVCAR-4
  GI50: 17.2 µM (inactive)
ACHN
  GI50: 12.6 µM (inactive)
SF-295
  GI50: 19.5 µM (inactive)
M14
  GI50: 14.7 µM (inactive)
LOX IMVI
  GI50: 17.5 µM (inactive)
MDA-MB-435
  GI50: 16.1 µM (inactive)
SR
  GI50: 2.97 µM (inactive)
NCI-H522
  GI50: 2.68 µM (inactive)
RPMI-8226
  GI50: 10.2 µM (inactive)
RXF 393
  GI50: 18.3 µM (inactive)
NCI-H23
  GI50: 15.1 µM (inactive)
EKVX
  GI50: 19 µM (inactive)
MDA-MB-231
  GI50: 18.6 µM (inactive)
IGROV-1
  GI50: 15 µM (inactive)
KM12
  GI50: 15.2 µM (inactive)
Malme-3M
  GI50: 16.9 µM (inactive)
NCI/ADR-RES
  GI50: 18.7 µM (inactive)
UACC-62
  GI50: 17.8 µM (inactive)
UACC-257
  GI50: 15.6 µM (inactive)

Source: ChEMBL document CHEMBL1201862, “PubChem BioAssay data set” (2004)
